Structures can show the parent of a compound that is named as a salt. Where two headings read alike, the source gives them in different places.

The assay deals with T1, 1N4R p-tau.
T1 construct: made in house; host or cells: E. coli (PIMAX system)
The assay can be described thus: p-tau aggregation modulator screen of 1280-compound library (ThS fluorescence net change over 16 h).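 On ThS net change: 30 µM compound with 6 µM p-tau over 16 h.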 In kind it is biochemical. On the set-up: key to PTAI>3SD: *: PTAI>3SD.

Setting [1] is: p-tau aggregation modulator screen of the compound library, ThS fluorescence net change.
[2] abbreviates: 1280-compound library screen, […].
Where [3] appears, read: 1280-compound library screen, ThS fluorescence net change over 16 h.
The mark [4] stands for this setting: p-tau aggregation modulator screen of 1280-compound library, ThS fluorescence net change.
[5] abbreviates: library screen, ThS fluorescence net change over 16 h with p-tau.
Setting [6] is: p-tau aggregation modulator screen of 1280-compound library, […].

Take `CC1(C)O[C@@H]2C[C@H]3[C@@H]4C[C@H](F)C5=CC(=O)C=C[C@]5(C)[C@@]4(F)[C@@H](O)C[C@]3(C)[C@]2(C(=O)CO)O1` [Fluocinolone acetonide]: the ThS net change under setting [1] amounted to 460.
Molecule `CC1(C)S[C@@H]2[C@H](NC(=O)[C@H](C(=O)O)c3ccsc3)C(=O)N2[C@H]1C(=O)O` [Ticarcillin sodium] had a ThS net change under setting [2] of 407.
On to `CN(C)CC/C=C1/c2ccccc2Sc2ccc(Cl)cc21` [Chlorprothixene hydrochloride], for which the ThS net change under setting [3] was 392.
Same read-out and setting: the same measure for `Cc1ccc(S(=O)(=O)NC(=O)NN2CC3CCCC3C2)cc1` (centres unmarked) [Gliclazide]: 379.
`NC[C@H]1O[C@H](O[C@H]2[C@H](O)[C@@H](O[C@H]3O[C@H](CO)[C@@H](O)[C@H](N)[C@H]3O)[C@H](N)C[C@@H]2N)[C@H](O)[C@@H](O)[C@@H]1O` [Kanamycin A sulfate] came in with a ThS net change under setting [4] of 374.
Regarding `Nc1ccc(/N=N/c2ccccc2)c(N)n1` [Phenazopyridine hydrochloride], the “PTAI>3SD” value (flag: p-tau aggregation inhibitor, ThS net change more than 3 SD from mean) was “*”. This molecule also had a ThS net change under setting [5] of 12.
For the molecule `CCCc1cc(=O)[nH]c(=S)[nH]1` [Propylthiouracil], the ThS net change under setting [1] stood at 422.
Regarding `CN1[C@@H]2CC[C@H]1C[C@@H](OC(c1ccccc1)c1ccccc1)C2` [Benztropine mesylate], the ThS net change under setting [1] was determined as 419.
As for `COC(=O)C1=C(C)NC(C)=C(C(=O)OCCN(C)Cc2ccccc2)C1c1cccc([N+](=O)[O-])c1` (centres unmarked) [Nicardipine hydrochloride], the ThS net change under setting [4] was 330.
Regarding `CC(=O)OCC(=O)[C@@]12OC(C)(C)O[C@@H]1C[C@H]1[C@@H]3C[C@H](F)C4=CC(=O)C=C[C@]4(C)[C@@]3(F)[C@@H](O)C[C@@]12C` [Fluocinonide], the ThS net change under setting [3] came out at 387.
Molecule `CCCCC1(COC(=O)CCC(=O)O)C(=O)N(c2ccccc2)N(c2ccccc2)C1=O` [Suxibuzone] returned a ThS net change under setting [3] of 392.
`CCCC(C)C1(CC)C(=O)NC(=O)NC1=O` (centres unmarked) [Pentobarbital]: the ThS net change under setting [6] worked out at 354.
Consider `C1N2CN3CN1CN(C2)C3` [Methenamine], for which the ThS net change under setting [3] is on record as 391.
Under setting [1], `CCCNC(=O)NS(=O)(=O)c1ccc(Cl)cc1` [Chlorpropamide] registered a ThS net change of 425.
`CCOC(=O)[C@H](CCc1ccccc1)N[C@H]1CCc2ccccc2N(CC(=O)O)C1=O` [Benazepril HCl]: under setting [3], the ThS net change is listed as 382.
For the molecule `C[C@H](N[C@@H](CCc1ccccc1)C(=O)O)C(=O)N1CCC[C@H]1C(=O)O.O.O` [Enalaprilat dihydrate], the ThS net change turned out to be 438.
Turning to `CCCCc1nc(Cl)c(CO)n1Cc1ccc(-c2ccccc2-c2nn[nH]n2)cc1` [Losartan], under setting [1], the ThS net change turned out to be 468.
For Hydralazine hydrochloride, the ThS net change was found to be 214.
With `O=C1OCCN1/N=C/c1ccc([N+](=O)[O-])o1` [Furazolidone], the ThS net change under setting [1] turned out to be 415.
Molecule `Cl.c1cnc(N2CCN(Cc3ccc4c(c3)OCO4)CC2)nc1` [Piribedil hydrochloride] registered a ThS net change under setting [3] of 392.
With `CN1CCN(C(c2ccccc2)c2ccc(Cl)cc2)CC1` (centres unmarked) [Chlorcyclizine hydrochloride], the ThS net change under setting [4] is 337.
`CCNCC(O)c1cccc(O)c1` (centres unmarked) [Etilefrine hydrochloride] returned a ThS net change under setting [3] of 407.
Under setting [2], `CC[C@@H]1C(=O)OC[C@@H]1Cc1cncn1C` [Pilocarpine nitrate] displayed a ThS net change of 378.
Take `CCN(CCCc1ccccc1)CCCc1ccccc1.O=C(O)CC(O)(CC(=O)O)C(=O)O` [Alverine citrate salt]: the ThS net change under setting [4] worked out at 374.
In turn, `CC1(C)O[C@@H]2C[C@H]3[C@@H]4C[C@H](F)C5=CC(=O)CC[C@]5(C)[C@H]4[C@@H](O)C[C@]3(C)[C@]2(C(=O)CO)O1` [Flurandrenolide] returned a ThS net change under setting [4] of 377.
Under setting [1], `COc1cc(NS(=O)(=O)c2ccc(N)cc2)ncn1` [Sulfamonomethoxine] displayed a ThS net change of 419.
`CNC[C@H](O)[C@@H](O)[C@H](O)[C@H](O)CO` [Meglumine]: the ThS net change under setting [4] came to 368.
For the molecule `CCN(CCO)CCCC(C)Nc1ccnc2cc(Cl)ccc12` (centres unmarked) [Hydroxychloroquine sulfate], under setting [3], the ThS net change turned out to be 380.
On the same count and under the same terms, for `CO/N=C(\C(=O)N[C@@H]1C(=O)N2C(C(=O)O)=C(COC(C)=O)CS[C@H]12)c1csc(N)n1` [Cefotaxime sodium salt] the value was 384.
With `OCCN1CCN(CCCN2c3ccccc3Sc3ccc(Cl)cc32)CC1` [Perphenazine], under setting [4], the ThS net change came out at 328.
`CC(=O)CCCCn1c(=O)c2c(ncn2C)n(C)c1=O` [Pentoxifylline] gave a ThS net change under setting [5] of 314.
As to `CC(=O)[C@H]1CC[C@H]2[C@@H]3C=CC4=CC(=O)CC[C@@]4(C)[C@@H]3CC[C@]12C` [Dydrogesterone], the ThS net change under setting [4] is 371.
Consider `CC(C)(CO)[C@@H](O)C(=O)NCCCO` [Panthenol (D)], for which, under setting [1], the ThS net change was 429.
For `CC(=O)Oc1cc(C(F)(F)F)ccc1C(=O)O` [Triflusal], under setting [4], the ThS net change was 343.
On the same count and under the same terms, the same measure for `CN1C[C@H](CNC(=O)OCc2ccccc2)C[C@@H]2c3cccc4c3c(cn4C)C[C@H]21` [Metergoline]: 349; for `CC1=C(/C=C/C(C)=C/C=C/C(C)=C/C(=O)O)C(C)(C)CCC1` [Retinoic acid]: 374.
As to `NCC1(CC(=O)O)CCCCC1` [Gabapentin], the ThS net change under setting [6] came to 363.
`N=C(N)NC(=O)c1nc(Cl)c(N)nc1N` [Amiloride hydrochloride dihydrate] registered a ThS net change under setting [3] of 401.
`CN1CCC(=C2c3ccccc3CCc3sccc32)CC1.O=C(O)CC(O)C(=O)O` [Pizotifen malate] came in with a ThS net change under setting [1] of 437.
In turn, `CC[C@]12CCCN3CCc4c(n(c5ccccc45)C(=O)C1)[C@@H]32` [Eburnamonine (-)] returned a ThS net change of 379.
Take `CN1Cc2c(N)cccc2C(c2ccccc2)C1` (centres unmarked) [Nomifensine maleate]: the ThS net change under setting [6] was found to be 340.
Under setting [3], `Nc1ccc(S(=O)(=O)c2ccc(N)cc2)cc1` [Dapsone] returned a ThS net change of 382.
The molecule `CC(C)NCC(O)COc1ccc(CC(N)=O)cc1` (stereo in doubt) [(S)-(-)-Atenolol] yielded a ThS net change under setting [4] of 363.
Molecule `CCCNC(C)C(=O)Nc1ccccc1C` (centres unmarked) [Prilocaine hydrochloride] displayed a ThS net change under setting [3] of 378.
Under setting [1], `CCOc1cc(CC(=O)N[C@@H](CC(C)C)c2ccccc2N2CCCCC2)ccc1C(=O)O` [Repaglinide] yielded a ThS net change of 481.
`CN(C)[C@@H]1C(O)=C(C(N)=O)C(=O)[C@@]2(O)C(O)=C3C(=O)c4c(O)ccc(Cl)c4[C@@](C)(O)[C@H]3C[C@@H]12` [Chlortetracycline hydrochloride] displayed a ThS net change under setting [5] of 223.
As to `Cc1cccc(C)c1NC(=O)C1CCCCN1C` (centres unmarked) [Mepivacaine hydrochloride], the ThS net change under setting [1] is 428.
Under setting [3], `CCCCOc1ccc(C(=O)CCN2CCCCC2)cc1` [Dyclonine hydrochloride] returned a ThS net change of 406.
`C[C@@H]1CCC[C@H](C)N1NC(=O)c1ccc(Cl)c(S(N)(=O)=O)c1` [Clopamide] yielded a ThS net change under setting [4] of 369.
The same measure, in the same setting: the same measure for `NS(=O)(=O)Cc1noc2ccccc12` [Zonisamide]: 341.
`CN1[C@@H]2CC[C@H]1C[C@@H](OC(=O)[C@H](CO)c1ccccc1)C2` [Hyoscyamine (L)] came in with a ThS net change of 434.
Under setting [1], `CN[C@H]1CC[C@@H](c2ccc(Cl)c(Cl)c2)c2ccccc21` [Sertraline] came in with a ThS net change of 428.
Molecule `NC(=O)OCC(COC(N)=O)c1ccccc1` [Felbamate] had a ThS net change under setting [1] of 439.
Consider `C=C(NC(=O)C(=C)NC(=O)c1csc(C2=N[C@@H]3c4csc(n4)[C@H]4NC(=O)c5csc(n5)[C@H]([C@](C)(O)[C@@H](C)O)NC(=O)[C@H]5CSC(=N5)/C(=C/C)NC(=O)[C@H]([C@@H](C)O)NC(=O)c5csc(n5)[C@]3(CC2)NC(=O)[C@H](C)NC(=O)C(=C)NC(=O)[C@H](C)NC(=O)[C@H]([C@@H](C)CC)N[C@@H]2C=Cc3c([C@H](C)O)cc(nc3[C@H]2O)C(=O)O[C@@H]4C)n1)C(N)=O` [Thiostrepton], for which the ThS net change is given as 503.
In the case of `CN1CCC(=C2c3ccccc3CC(=O)c3sccc32)CC1` [Ketotifen fumarate], under setting [4], the ThS net change is reported as 366.
Turning to `C=C[C@H]1CN2CC[C@H]1C[C@@H]2[C@@H](O)c1ccnc2ccc(OC)cc12.Cl.O` [Quinidine hydrochloride monohydrate], the ThS net change is 282.
Under setting [5], `Oc1ccc(C2CNCCc3c2cc(O)c(O)c3Cl)cc1` (centres unmarked) [Fenoldopam] returned a ThS net change of 310.
Take `COC(=O)Nc1nc2cc(SC(C)C)ccc2[nH]1` [Methiazole]: the ThS net change under setting [4] amounted to 365.
Consider `Nc1ccc(S(=O)(=O)Nc2ccc(Cl)nn2)cc1` [Sulfachloropyridazine], for which the ThS net change under setting [1] was 413.
As to `O=C(NCCNCC(O)COc1ccc(O)cc1)N1CCOCC1` (centres unmarked) [Xamoterol hemifumarate], the ThS net change under setting [4] is recorded as 378.
On the same count and under the same terms, the same measure for `CC(=O)Oc1ccccc1C(=O)Oc1ccccc1C(=O)O` [Acetylsalicylsalicylic acid]: 363.
The molecule `Nc1ccn([C@@H]2CS[C@H](CO)O2)c(=O)n1` [Lamivudine] gave a ThS net change under setting [1] of 424.
On to `O=C(O)c1cccnc1` [Niacin], for which the ThS net change under setting [3] was found to be 391.
Take `CN(CCCCCCCCCCN(C)C(=O)Oc1cccc([N+](C)(C)C)c1)C(=O)Oc1cccc([N+](C)(C)C)c1` [Demecarium bromide]: under setting [6], the ThS net change turned out to be 377.
Turning to `O=C(N/N=C/c1ccc([N+](=O)[O-])o1)c1ccc(O)cc1` [Nifuroxazide], the ThS net change under setting [3] is 402.
`C[C@]12CC[C@H](O)C[C@@H]1CC[C@@H]1[C@@H]2CC[C@]2(C)C(=O)CC[C@@H]12` [Epiandrosterone] registered a ThS net change of 440.
Regarding `CN1C(C(=O)Nc2ccccn2)=C(O)c2ccccc2S1(=O)=O` [Piroxicam], the ThS net change under setting [4] amounted to 329.

These data come from PMC7539012, “Hyperphosphorylated tau aggregation and cytotoxicity modulators screen identified prescription drugs linked to Alzheimer's disease and cognitive functions” (Scientific Reports, 2020).
